Series [1] addresses Matrix metalloproteinase-9 (Homo sapiens, UniProt P14780). The series is described as follows: Inhibition of human MMP9.
In series [2] the target is Matrix metalloproteinase-14 (Homo sapiens, UniProt P50281). The series is described as follows: Inhibition of human MMP14.
Series [3] deals with Disintegrin and metalloproteinase domain-containing protein 17 (Homo sapiens, UniProt P78536). Kind of series: Inhibition of human TACE.
Series [4] has as its target A disintegrin and metalloproteinase with thrombospondin motifs 4 (Homo sapiens, UniProt O75173). The series is described as follows: Inhibition of human Aggrecanase 1.
The target in series [5] is A disintegrin and metalloproteinase with thrombospondin motifs 5 (Homo sapiens, UniProt Q9UNA0). The series is described as follows: Inhibition of human Aggrecanase 2.
Series [6] is described as follows: Metabolic stability in C57BL/6 mouse liver microsome assessed as half life. It counts as ADME. The following applies: liver microsomes. In general terms: Liver microsomes are vesicles of endoplasmic reticulum, rich in cytochrome P450 enzymes.
Series [7] addresses Voltage-gated inwardly rectifying potassium channel KCNH2 (Homo sapiens, UniProt Q12809). Kind of series: Inhibition of human ERG at 10 uM by ion works assay.
Series [8] relates to Mus musculus. Kind of series: Inhibition of human recombinant MMP12-induced ear-edema in C57BL/6 mouse assessed as decrease in ear edema at 30 mg/kg, po bid administered 2 hrs post challenge. The series is classed as functional. The following applies: C57BL/6, 2 h.
Series [9] has as its system Mus musculus. The series is described as follows: Inhibition of human recombinant MMP12-induced ear-edema in C57BL/6 mouse assessed as decrease in ear edema at 10 mg/kg, po bid administered 2 hrs post challenge. It counts as functional. The note with it: C57BL/6, 2 h.
In series [10] the test system is Mus musculus. The series is described as follows: Inhibition of human recombinant MMP12-induced ear-edema in C57BL/6 mouse assessed as decrease in ear edema at 3 mg/kg, po bid administered 2 hrs post challenge. The series is classed as functional. The note with it: C57BL/6, 2 h.
The subject of series [11] is Ovis aries. Kind of series: Inhibition of carbachol-induced airway hyper-responsiveness in Ascaris suum challenged sheep asthma model at 10 mg/kg, po. The series is classed as functional, organism-based. More on the design: dose 10 mg/kg.
Series [12] concerns Ovis aries. Kind of series: Inhibition of EAR phase of bronchoconstrictive in Ascaris suum challenged sheep asthma model at 10 mg/kg, po twice the day prior to allergen challenge and third dose 1 hr prior to allergen challenge. It counts as functional, organism-based. More on the design: dose 10 mg/kg. The note with it: Lung.
Another series addresses Cytochrome P450 2D6 (Homo sapiens, UniProt P10635). Kind of series: Inhibition of CYP2D6. It counts as ADME.
Another series has as its target Cytochrome P450 2C9 (Homo sapiens, UniProt P11712). The series is described as follows: Inhibition of CYP2C9. It counts as ADME.
A further series addresses Cytochrome P450 3A4 (Homo sapiens, UniProt P08684). Kind of series: Inhibition of CYP3A4. The series is classed as ADME.
In the next series the target is Collagenase 3 (Homo sapiens, UniProt P45452). The series is described as follows: Inhibition of human recombinant MMP13.
Series [13] is described as follows: Volume of distribution at steady state in C57BL/6 mouse at 2 mg/kg, iv. The note with it: in vivo, read-out: Vdss. More on the design: dose 2 mg/kg, route intravenous. The series is classed as ADME, organism-based.
A short description of series [14]: Clearance in C57BL/6 mouse at 2 mg/kg, iv. The note with it: in vivo. It counts as ADME, organism-based. Set-up: dose 2 mg/kg, route intravenous.
Series [15] can be described thus: Half life in C57BL/6 mouse at 10 mg/kg, po. The series is classed as ADME, organism-based. More on the design: dose 10 mg/kg, route oral. The following applies: in vivo.
Series [16] can be described thus: Cmax in C57BL/6 mouse at 10 mg/kg, po. The series is classed as ADME, organism-based. More on the design: dose 10 mg/kg, route oral. The following applies: in vivo.
Series [17] is described as follows: Oral bioavailability in C57BL/6 mouse at 10 mg/kg. It counts as ADME, organism-based. The following applies: in vivo.
In series [18] the target is Macrophage metalloelastase (Mus musculus, UniProt P34960). The series is described as follows: Inhibition of mouse MMP12.
For series [19], the target named is Macrophage metalloelastase (Rattus norvegicus, UniProt Q63341). Kind of series: Inhibition of rat MMP12.
Series [20] is described as follows: Inhibition of sheep MMP12. More on the design: species or system Ovis aries.
The next series addresses Interstitial collagenase (Homo sapiens, UniProt P03956). Kind of series: Inhibition of human MMP1.
For series [21], the target named is 72 kDa type IV collagenase (Homo sapiens, UniProt P08253). The series is described as follows: Inhibition of human MMP2.
The next series deals with Stromelysin-1 (Homo sapiens, UniProt P08254). Kind of series: Inhibition of human MMP3.
Another series addresses Matrilysin (Homo sapiens, UniProt P09237). The series is described as follows: Inhibition of human MMP7.
In another series the target is Neutrophil collagenase (Homo sapiens, UniProt P22894). The series is described as follows: Inhibition of human MMP8.
Series [22] is described as follows: in vitro. The following applies: rat, liver microsomes.
The nature of series [23]: in vitro. The note with it: human, liver microsomes.
The target in series [24] is Macrophage metalloelastase (Homo sapiens, UniProt P39900).
Series [25] concerns the target Macrophage metalloelastase MMP-12 (Homo sapiens) (UniProt P39900). Kind of series: Inhibition of MMP12.
Series [26] in a line: Half life in C57BL/6 mouse at 30 mg/kg, po. The series is classed as ADME, organism-based. Set-up: dose 30 mg/kg, route oral. The note with it: in vivo.
The nature of series [27]: Cmax in C57BL/6 mouse at 30 mg/kg, po. The note with it: in vivo. It counts as ADME, organism-based. More on the design: dose 30 mg/kg, route oral.
Series [28] is described as follows: Oral bioavailability in C57BL/6 mouse at 30 mg/kg. It counts as ADME, organism-based. The note with it: in vivo.

Here are results for five compounds from ChEMBL document CHEMBL1152446, “Identification of an orally efficacious matrix metalloprotease 12 inhibitor for potential treatment of asthma” (J Med Chem, 2009).

Active and inactive are the calls of the source. The calls are words filed in the database; no cut-off is given here.

Sequence of Matrix metalloproteinase-9 (P14780 whole entry): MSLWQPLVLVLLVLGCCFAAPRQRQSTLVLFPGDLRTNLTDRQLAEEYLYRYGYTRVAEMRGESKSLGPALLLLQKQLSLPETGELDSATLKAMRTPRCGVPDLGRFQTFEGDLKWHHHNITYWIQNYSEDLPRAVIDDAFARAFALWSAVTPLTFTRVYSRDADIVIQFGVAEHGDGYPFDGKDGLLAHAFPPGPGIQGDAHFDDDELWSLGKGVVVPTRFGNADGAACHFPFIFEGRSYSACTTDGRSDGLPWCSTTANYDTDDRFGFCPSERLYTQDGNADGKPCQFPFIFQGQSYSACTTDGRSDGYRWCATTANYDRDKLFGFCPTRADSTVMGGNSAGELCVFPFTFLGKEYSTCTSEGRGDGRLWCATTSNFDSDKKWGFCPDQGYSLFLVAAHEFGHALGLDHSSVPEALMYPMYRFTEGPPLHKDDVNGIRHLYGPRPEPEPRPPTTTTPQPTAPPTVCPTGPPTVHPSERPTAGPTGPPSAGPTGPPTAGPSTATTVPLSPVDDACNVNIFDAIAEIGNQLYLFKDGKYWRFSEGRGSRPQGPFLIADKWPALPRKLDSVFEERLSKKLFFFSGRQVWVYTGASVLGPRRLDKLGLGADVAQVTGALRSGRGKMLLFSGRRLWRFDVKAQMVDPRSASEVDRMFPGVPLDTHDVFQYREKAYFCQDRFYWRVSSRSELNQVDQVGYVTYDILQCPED
Sequence of Cytochrome P450 2C9 (P11712 whole entry): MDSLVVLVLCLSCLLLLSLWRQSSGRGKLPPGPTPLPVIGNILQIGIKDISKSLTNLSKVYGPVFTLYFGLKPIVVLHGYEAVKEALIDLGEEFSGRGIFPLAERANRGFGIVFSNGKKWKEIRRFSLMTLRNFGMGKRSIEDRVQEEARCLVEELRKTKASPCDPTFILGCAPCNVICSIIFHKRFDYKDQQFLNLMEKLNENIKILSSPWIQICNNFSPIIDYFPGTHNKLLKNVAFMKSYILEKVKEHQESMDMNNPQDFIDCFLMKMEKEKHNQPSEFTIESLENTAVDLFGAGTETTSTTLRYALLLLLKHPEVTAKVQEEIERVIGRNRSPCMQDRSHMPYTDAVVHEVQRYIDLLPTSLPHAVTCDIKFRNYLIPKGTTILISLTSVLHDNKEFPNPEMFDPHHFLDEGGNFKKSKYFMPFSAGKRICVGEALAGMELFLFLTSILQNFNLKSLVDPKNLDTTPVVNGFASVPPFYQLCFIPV
Sequence of Cytochrome P450 2D6 (P10635 whole entry): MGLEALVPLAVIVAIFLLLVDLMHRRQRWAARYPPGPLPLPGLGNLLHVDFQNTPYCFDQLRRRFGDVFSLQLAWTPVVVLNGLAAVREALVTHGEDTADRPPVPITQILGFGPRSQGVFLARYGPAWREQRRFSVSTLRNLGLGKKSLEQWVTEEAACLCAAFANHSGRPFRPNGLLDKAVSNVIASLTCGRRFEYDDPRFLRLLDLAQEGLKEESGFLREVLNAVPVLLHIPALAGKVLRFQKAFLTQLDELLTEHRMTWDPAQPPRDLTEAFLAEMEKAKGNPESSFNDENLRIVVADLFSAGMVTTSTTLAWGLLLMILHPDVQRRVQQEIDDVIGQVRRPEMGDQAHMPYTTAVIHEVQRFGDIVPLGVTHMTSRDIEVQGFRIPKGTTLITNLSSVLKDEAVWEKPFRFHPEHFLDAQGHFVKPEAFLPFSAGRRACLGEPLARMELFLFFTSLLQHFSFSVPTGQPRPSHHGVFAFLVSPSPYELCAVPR
Sequence of Neutrophil collagenase (P22894 whole entry): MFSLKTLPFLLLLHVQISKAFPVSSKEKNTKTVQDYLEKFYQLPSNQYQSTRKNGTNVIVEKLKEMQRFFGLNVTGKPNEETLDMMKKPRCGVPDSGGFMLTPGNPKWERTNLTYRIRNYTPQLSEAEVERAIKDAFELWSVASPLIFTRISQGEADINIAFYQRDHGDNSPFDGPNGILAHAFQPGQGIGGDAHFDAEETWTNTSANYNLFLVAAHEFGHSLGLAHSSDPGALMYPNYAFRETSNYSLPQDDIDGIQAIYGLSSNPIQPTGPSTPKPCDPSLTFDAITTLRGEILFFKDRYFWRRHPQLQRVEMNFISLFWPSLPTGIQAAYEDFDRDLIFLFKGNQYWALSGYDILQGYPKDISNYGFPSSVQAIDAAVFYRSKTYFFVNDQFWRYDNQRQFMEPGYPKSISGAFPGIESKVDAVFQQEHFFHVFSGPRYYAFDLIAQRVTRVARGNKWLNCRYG
Sequence of Macrophage metalloelastase (Mus musculus, UniProt P34960) (P34960 whole entry): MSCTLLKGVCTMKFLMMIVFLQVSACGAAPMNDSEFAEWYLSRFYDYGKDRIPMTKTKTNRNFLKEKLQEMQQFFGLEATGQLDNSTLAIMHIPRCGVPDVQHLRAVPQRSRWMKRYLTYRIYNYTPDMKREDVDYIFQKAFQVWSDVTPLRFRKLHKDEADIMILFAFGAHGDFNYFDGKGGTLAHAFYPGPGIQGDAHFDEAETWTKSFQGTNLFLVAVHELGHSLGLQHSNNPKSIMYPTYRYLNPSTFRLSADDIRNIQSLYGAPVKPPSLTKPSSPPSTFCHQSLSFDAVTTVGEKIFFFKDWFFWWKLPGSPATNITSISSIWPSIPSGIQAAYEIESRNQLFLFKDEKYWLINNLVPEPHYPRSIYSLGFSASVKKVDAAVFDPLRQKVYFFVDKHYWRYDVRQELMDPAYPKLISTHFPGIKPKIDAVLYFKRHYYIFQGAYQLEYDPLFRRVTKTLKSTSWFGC
Sequence of 72 kDa type IV collagenase (P08253 whole entry): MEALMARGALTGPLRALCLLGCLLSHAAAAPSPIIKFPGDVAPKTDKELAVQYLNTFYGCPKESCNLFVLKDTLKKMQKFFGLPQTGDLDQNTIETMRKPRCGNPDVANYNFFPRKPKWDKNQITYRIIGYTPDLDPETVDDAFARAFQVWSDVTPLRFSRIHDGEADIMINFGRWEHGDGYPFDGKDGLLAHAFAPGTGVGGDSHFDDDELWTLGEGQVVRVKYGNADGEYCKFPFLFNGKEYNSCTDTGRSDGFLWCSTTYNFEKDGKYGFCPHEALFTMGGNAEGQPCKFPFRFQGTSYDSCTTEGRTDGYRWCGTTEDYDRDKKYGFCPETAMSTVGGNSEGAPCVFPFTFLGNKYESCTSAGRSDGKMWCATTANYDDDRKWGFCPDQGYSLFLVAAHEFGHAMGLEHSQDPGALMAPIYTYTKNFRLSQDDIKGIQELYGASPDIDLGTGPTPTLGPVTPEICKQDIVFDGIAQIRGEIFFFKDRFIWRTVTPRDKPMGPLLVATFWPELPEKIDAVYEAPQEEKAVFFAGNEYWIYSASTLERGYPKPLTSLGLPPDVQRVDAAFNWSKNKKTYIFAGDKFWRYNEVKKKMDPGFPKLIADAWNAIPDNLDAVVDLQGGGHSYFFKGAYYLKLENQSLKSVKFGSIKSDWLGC
Sequence of A disintegrin and metalloproteinase with thrombospondin motifs 4 (O75173 whole entry): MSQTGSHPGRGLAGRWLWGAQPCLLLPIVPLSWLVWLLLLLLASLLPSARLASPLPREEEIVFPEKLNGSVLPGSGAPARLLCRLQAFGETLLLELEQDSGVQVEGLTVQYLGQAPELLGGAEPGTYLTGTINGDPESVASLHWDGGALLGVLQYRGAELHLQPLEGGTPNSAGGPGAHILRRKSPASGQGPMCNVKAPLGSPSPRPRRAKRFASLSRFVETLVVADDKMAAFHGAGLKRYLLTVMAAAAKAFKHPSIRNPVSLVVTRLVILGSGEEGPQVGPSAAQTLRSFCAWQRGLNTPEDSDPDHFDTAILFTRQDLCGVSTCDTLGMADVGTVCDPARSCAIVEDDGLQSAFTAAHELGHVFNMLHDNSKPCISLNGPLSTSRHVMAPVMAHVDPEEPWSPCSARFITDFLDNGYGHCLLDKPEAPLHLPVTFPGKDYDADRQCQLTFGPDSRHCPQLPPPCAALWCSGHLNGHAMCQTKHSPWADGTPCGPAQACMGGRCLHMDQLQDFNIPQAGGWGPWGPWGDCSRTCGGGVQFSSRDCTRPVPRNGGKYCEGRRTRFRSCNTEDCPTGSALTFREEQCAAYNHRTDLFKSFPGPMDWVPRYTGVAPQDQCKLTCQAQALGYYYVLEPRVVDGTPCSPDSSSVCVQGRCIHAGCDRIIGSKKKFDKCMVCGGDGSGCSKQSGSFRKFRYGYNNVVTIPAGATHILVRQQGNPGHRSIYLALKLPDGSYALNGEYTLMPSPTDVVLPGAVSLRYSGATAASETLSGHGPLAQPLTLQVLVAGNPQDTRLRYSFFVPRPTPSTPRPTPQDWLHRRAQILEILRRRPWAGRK
Sequence of Matrilysin (P09237 whole entry): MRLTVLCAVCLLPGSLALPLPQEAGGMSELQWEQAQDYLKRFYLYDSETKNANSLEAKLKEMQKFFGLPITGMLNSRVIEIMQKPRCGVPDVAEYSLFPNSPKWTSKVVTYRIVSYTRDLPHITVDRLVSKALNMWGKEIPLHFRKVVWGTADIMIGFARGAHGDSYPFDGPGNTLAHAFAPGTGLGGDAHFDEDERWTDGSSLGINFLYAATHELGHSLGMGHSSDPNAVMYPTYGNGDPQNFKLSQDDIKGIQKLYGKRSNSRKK
Sequence of Stromelysin-1 (P08254 whole entry): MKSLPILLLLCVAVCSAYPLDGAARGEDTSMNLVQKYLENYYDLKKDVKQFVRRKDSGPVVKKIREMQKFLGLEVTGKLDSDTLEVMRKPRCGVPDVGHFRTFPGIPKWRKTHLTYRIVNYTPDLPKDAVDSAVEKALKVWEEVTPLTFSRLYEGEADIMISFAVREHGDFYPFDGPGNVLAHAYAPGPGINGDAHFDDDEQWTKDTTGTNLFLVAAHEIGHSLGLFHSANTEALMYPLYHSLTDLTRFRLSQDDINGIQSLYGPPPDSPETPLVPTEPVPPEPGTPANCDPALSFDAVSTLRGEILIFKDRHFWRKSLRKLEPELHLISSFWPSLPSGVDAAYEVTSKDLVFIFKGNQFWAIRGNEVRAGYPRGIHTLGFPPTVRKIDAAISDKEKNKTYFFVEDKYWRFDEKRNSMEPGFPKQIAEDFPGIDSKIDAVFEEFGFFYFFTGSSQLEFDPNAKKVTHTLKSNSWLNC

What is called IC50 is the midpoint of a concentration-inhibition curve. A word on the half-life: it is the time in which the quantity being followed falls by half. A word on the inhibition in vivo: it is the percentage by which the read-out fell short of the control. The term clearance denotes the rate of elimination divided by the concentration. Read a high clearance as a high capacity for elimination. For orientation: Cmax means the highest concentration seen after dosing. One may read the bioavailability as dose-corrected exposure relative to a reference, in per cent. Low values mean little systemic uptake, high ones much systemic uptake. For `CC(C)[C@H](NS(=O)(=O)c1ccc2c(c1)oc1ccc(N3CCOC3=O)cc12)C(=O)O`, the IC50 in series [1] is 0.318 µM; in [2], 2.25 µM; in series [3], 40 µM; in series [4] it was 18 µM; in series [5] it was 22.6 µM; on Collagenase 3, 0.106 µM. Further, the IC50 in [18] was 0.027 µM; in [19], 0.072 µM; in series [20] it was 0.002 µM; at Interstitial collagenase it was 5.46 µM; in series [21] it was 0.066 µM; on Stromelysin-1, 0.3 µM. The IC50 on Matrilysin was found to be 7.83 µM; against Neutrophil collagenase, 0.037 µM. Also, the half-life is more than 30 min in series [6], 186 min in series [15], more than 30 min in “in vitro [22]” and more than 30 min in the series “in vitro [23]”. The “inhibition (INH)” value (in series [7]; against Cytochrome P450 2D6; on Cytochrome P450 2C9; at Cytochrome P450 3A4) was “Not Active” each time. Besides, in the series on Mus musculus [8], the inhibition in vivo at 30 mg/kg amounted to 40.3%. The inhibition in vivo at 10 mg/kg in the series on Mus musculus [9] came out at 35.1%. For the same compound, the inhibition in vivo at 3 mg/kg in the series with Mus musculus [10] turned out to be 25.2%. The inhibition entry in the series with Ovis aries [11] and in the series on Ovis aries [12] was “Active” in each case. The Vd in series [13] amounted to 0.8 L/kg. The clearance in series [14] was found to be 18 mL/min/kg. The Cmax in series [16] worked out at 456 ng/mL. Besides, in [17], the bioavailability was 17%.
Take `CC(C)[C@H](NS(=O)(=O)c1ccc2c(c1)sc1cc(NC(=O)NC3CCCC3)ccc12)C(=O)O`: the half-life (in series [6]; in “in vitro [22]”; in the series “in vitro [23]”) was more than 30 min each time. The IC50 (at Collagenase 3; in series [24]) was more than 1 µM each time.
In the case of `COC(=O)Nc1ccc2oc3cc(S(=O)(=O)N[C@H](C(=O)O)C(C)C)ccc3c2c1`, the half-life (in series [6]; in “in vitro [22]”; in “in vitro [23]”) was more than 30 min throughout. The compound also came in with an IC50 in series [25] of 0.002 µM.
In the case of `COC(=O)Nc1ccc2sc3cc(S(=O)(=O)N[C@H](C(=O)O)C(C)C)ccc3c2c1`, the half-life is more than 30 min in series [6], 186 min in [26], more than 30 min in “in vitro [22]” and more than 30 min in “in vitro [23]”. Besides, the IC50 on Collagenase 3 worked out at 0.065 µM. In [13], the Vd stood at 1.7 L/kg. The clearance in series [14] is 31.2 mL/min/kg. Moreover, the Cmax in series [27] stood at 1820 ng/mL. Further, the bioavailability in [28] turned out to be 34%.
With `COC(=O)Nc1ccc2sc3cc(S(=O)(=O)N[C@@H](C(=O)O)C(C)C)ccc3c2c1`, the half-life was more than 30 min in [6], 276 min in [26], more than 30 min in “in vitro [22]” and more than 30 min in “in vitro [23]”. For the same compound, the IC50 on Collagenase 3 was 0.00122 µM. The Vd in [13] came to 3.7 L/kg. Also, the clearance in series [14] came to 59.9 mL/min/kg. The Cmax in [27] worked out at 738 ng/mL. Besides, in [28], the bioavailability came out at 19%.
